# Experimental data reported in US7713994B2 (Wyeth LLC, priority 2005, dated 2010).
# Counter-ions that a name gives are not always drawn.
# Assays:
# [1] = target: T1, cyclin D1/cdk 4 enzyme (Homo sapiens, UniProt P11802); test: CDK4 ELISA kinase assay (phospho-Rb ser 795 detection); format: biochemical; details: In Vitro Enzyme Assays, 200 μM ATP, read-out: CDK4 IC50
# T1 construct: made in house; host or cells: Sf9 insect cells, recombinant baculovirus
# Method in brief: (§1)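 Partially purified Sf9-expressed cyclin D1/CDK4, cyclin E/CDK2 or cyclin B/CDK1 phosphorylated plate-bound GST-Rb C-terminal fragment with 200 μM ATP at 30° C for 1 h.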
# [2] = target: T2, cyclin E/CDK2 enzyme (Homo sapiens, UniProt P24941); test: CDK2 ELISA kinase assay (phospho-Rb ser 795 detection); format: biochemical; details: In Vitro Enzyme Assays, read-out: CDK2 IC50
# T2 construct: made in house; host or cells: Sf9 insect cells, recombinant baculovirus
# Method in brief: as §1
# [3] = target: T3, cyclin B/CDK1 enzyme (Homo sapiens, UniProt P06493); test: CDK1 ELISA kinase assay (phospho-Rb ser 795 detection); format: biochemical; details: In Vitro Enzyme Assays, read-out: CDK1 IC50
# T3 construct: purchased New England BioLabs; host or cells: Sf9 insect cells, recombinant baculovirus
# Method in brief: as §1
# [4] = system: BT474; test: Cytotoxicity assay (SRB), BT474; format: cell-based; details: BT474 cells, SRB, 6 days; read-out: In Vitro Cellular Activity IC50 BT474
# Method in brief: (§2)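 Percentage survival is derived from SRB absorbance (540 nm) versus untreated cells. Exposures were 3 days, except 6 days for BT474, at 37 °C and 7% CO2.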
# [5] = system: HCT-116; test: Cytotoxicity assay (SRB), HCT-116; format: cell-based; details: HCT116 cells, SRB, three days; read-out: In Vitro Cellular Activity IC50 HCT116
# Method in brief: as §2
# [6] = system: LoVo; test: Cytotoxicity assay (SRB), LoVo; format: cell-based; details: LoVo cells, SRB, three days; read-out: In Vitro Cellular Activity IC50 LOVO
# Method in brief: as §2
# [7] = system: MCF-7; test: Cytotoxicity assay (SRB), MCF-7; format: cell-based; details: MCF-7 cells, SRB, three days; read-out: In Vitro Cellular Activity IC50 MCF-7
# Method in brief: as §2
# T3 sequence (P06493 whole entry): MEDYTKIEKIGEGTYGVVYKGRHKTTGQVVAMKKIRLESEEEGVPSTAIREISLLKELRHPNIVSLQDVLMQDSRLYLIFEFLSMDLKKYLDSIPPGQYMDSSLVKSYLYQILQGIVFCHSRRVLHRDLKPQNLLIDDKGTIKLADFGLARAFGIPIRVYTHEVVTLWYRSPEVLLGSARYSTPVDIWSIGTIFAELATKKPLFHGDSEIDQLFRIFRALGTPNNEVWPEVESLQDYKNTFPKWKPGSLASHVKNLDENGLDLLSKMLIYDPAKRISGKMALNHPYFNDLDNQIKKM
# T3 sequence (P14635 whole entry partner): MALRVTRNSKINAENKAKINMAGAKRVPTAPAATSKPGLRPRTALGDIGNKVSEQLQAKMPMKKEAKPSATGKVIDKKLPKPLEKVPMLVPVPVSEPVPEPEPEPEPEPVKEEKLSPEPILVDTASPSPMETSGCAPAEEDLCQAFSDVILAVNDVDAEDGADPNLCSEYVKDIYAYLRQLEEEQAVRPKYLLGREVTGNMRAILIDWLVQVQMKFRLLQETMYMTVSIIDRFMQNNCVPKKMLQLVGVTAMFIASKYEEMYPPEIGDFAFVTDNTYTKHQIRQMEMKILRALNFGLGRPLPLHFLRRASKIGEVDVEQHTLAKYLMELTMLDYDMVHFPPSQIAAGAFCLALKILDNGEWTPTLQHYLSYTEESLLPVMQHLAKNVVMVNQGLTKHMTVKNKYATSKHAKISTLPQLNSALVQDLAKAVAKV
# T1 sequence (P11802 whole entry, species assumed): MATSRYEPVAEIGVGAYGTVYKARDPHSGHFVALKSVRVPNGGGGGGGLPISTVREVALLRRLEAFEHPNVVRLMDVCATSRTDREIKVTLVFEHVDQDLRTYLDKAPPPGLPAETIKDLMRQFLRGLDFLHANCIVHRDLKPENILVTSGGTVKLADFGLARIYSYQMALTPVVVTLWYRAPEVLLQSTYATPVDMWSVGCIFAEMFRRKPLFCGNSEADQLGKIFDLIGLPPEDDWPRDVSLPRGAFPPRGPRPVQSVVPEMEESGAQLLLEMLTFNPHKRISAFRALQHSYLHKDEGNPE
# T1 sequence (P24385 whole entry partner, species assumed): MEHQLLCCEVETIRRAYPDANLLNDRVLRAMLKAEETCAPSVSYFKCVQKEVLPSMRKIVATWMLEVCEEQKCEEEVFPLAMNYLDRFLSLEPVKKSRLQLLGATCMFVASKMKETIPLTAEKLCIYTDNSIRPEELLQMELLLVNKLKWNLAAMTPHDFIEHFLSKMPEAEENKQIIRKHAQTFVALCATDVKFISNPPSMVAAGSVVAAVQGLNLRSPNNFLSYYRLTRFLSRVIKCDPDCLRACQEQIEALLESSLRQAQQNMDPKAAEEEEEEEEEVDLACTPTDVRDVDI
compound,measurement,setting,value
CN1CCN(c2ccc(N/C=C3\C(=O)NC(=O)c4ccccc43)cc2)CC1,melting point,,245 to 246 °C
"CN1CCN(CCCNC=C2C(=O)NC(=O)c3ccc(-n4cccc4)cc32)CC1 (as salt: TFA) [Example 279, 4-{[3-(4-Methyl-piperazin-1-yl)-propylamino]-methylene}-6-pyrrol-1-yl-4H-isoquinoline-1,3-dione]",melting point,,207 to 210 °C
"COc1ccc(CN/C=C2\C(=O)NC(=O)c3ccc(Cl)cc32)cc1O (as salt: hydrochloride) [Example 67, (4Z)-6-Chloro-4-{[(3-hydroxy-4-methoxybenzyl)amino]methylene}isoquinoline-1,3(2H,4H)-dione]",melting point,,265 to 266 °C
"COc1ccc(CN/C=C2\C(=O)NC(=O)c3ccc(I)cc32)cc1O (as salt: hydrochloride) [Example 80, (4Z)-6-Iodo-4-{[(3-hydroxy-4-methoxybenzyl)amino]methylene}isoquinoline-1,3(2H,4H)-dione]",melting point,,209 to 210 °C
"COc1ccc(CN/C=C2\C(=O)NC(=O)c3ccc(-c4ccsc4)cc32)cc1O (as salt: hydrochloride) [Example 88, (4Z)-4-{[(3-Hydroxy-4-methoxybenzyl)amino]methylene}-6-thien-3-ylisoquinoline-1,3(2H,4H)-dione]",melting point,,219 to 220 °C
"COc1ccc(CN/C=C2\C(=O)NC(=O)c3ccccc32)cc1O (as salt: hydrochloride) [Example 98, (4Z)-4-{[(3-Hydroxy-4-methoxybenzyl)amino]methylene}isoquinoline-1,3(2H,4H)-dione]",melting point,,192 to 193 °C
"O=C1NC(=O)c2ccc(Br)cc2/C1=C/NCc1ccc(OCCO)c(O)c1 (as salt: potassium) [Example 139, (4Z)-6-Bromo-4-({[3-hydroxy-4-(2-hydroxyethoxy)benzyl]amino}methylene)isoquinoline-1,3(2H,4H)-dione]",melting point,,166 to 167 °C
"CC(=O)Nc1ccc(CN/C=C2\C(=O)NC(=O)c3ccc(I)cc32)cc1O (as salt: potassium) [Example 151, N-[2-Hydroxy-4-({[(Z)-(6-iodo-1,3-dioxo-2,3-dihydroisoquinolin-4(1H)-′ylidene)methyl]amino}methyl)phenyl]acetamide]",melting point,,345 to 346 °C
"CCCOc1ccc(CN/C=C2\C(=O)NC(=O)c3ccc(-c4cccc(F)c4)cc32)cc1O (as salt: sodium) [Example 193, (4Z)-6-(3-Fluorophenyl)-4-{[(3-hydroxy-4-propoxybenzyl)amino]methylene}-isoquinoline-1,3(2H,4H)-dione]",melting point,,209 to 210 °C
"CCCOc1ccc(CN/C=C2\C(=O)NC(=O)c3ccc(-c4ccc(F)c(F)c4)cc32)cc1O (as salt: sodium) [Example 194, (4Z)-6-(3,4-Difluorophenyl)-4-{[(3-hydroxy-4-propoxybenzyl)amino]methylene}-isoquinoline-1,3(2H,4H)-dione]",melting point,,227 to 228 °C
"C[C@@H]1CN(c2ccc(N/C=C3\C(=O)NC(=O)c4ccc(-c5ccc(F)cc5)cc43)cc2)C[C@H](C)N1 (as salt: sodium) [Example 205, (4Z)-4-({[4-(3,5-Dimethylpiperazin-1-yl)phenyl]amino}methylene)-6-(4-fluorophenyl)-isoquinoline-1,3(2H,4H)-dione]",melting point,,193 to 194 °C
"C[C@@H]1CN(c2ccc(N/C=C3\C(=O)NC(=O)c4ccc(-c5ccsc5)cc43)cc2)C[C@H](C)N1 (as salt: sodium) [Example 206, (4Z)-4-({[4-(3,5-Dimethylpiperazin-1-yl)phenyl]amino}methylene)-6-thien-3-ylisoquinoline-1,3(2H,4H)-dione]",melting point,,164 to 165 °C
"C[C@@H]1CN(c2ccc(N/C=C3\C(=O)NC(=O)c4ccc(-c5ccoc5)cc43)cc2)C[C@H](C)N1 (as salt: sodium) [Example 207, (4Z)-4-({[4-(3,5-Dimethylpiperazin-1-yl)phenyl]amino}methylene)-6-(3-furyl)iso-quinoline-1,3(2H,4H)-dione]",melting point,,199 to 200 °C
"COc1ccc(CN/C=C2\C(=O)NC(=O)c3ccc(-c4ccc(F)cc4)cc32)cc1O (as salt: sodium) [Example 208, (4Z)-6-(4-Fluorophenyl)-4-{[(3-hydroxy-4-methoxybenzyl)amino]methylene}iso-quinoline-1,3(2H,4H)-dione]",melting point,,239 to 240 °C
"COc1ccc(CN/C=C2\C(=O)NC(=O)c3ccc(-c4cccc(F)c4)cc32)cc1O (as salt: sodium) [Example 209, (4Z)-6-(3-Fluorophenyl)-4-{[(3-hydroxy-4-methoxybenzyl)amino]methylene}iso-quinoline-1,3(2H,4H)-dione]",melting point,,204 to 205 °C
"CN1CCN(c2ccc(N/C=C3\C(=O)NC(=O)c4ccc(-c5ccoc5)cc43)cc2)CC1 (as salt: sodium) [Example 236, (4Z)-6-(3-Furyl)-4-({[4-(4-methylpiperazin-1-yl)phenyl]amino}methylene)isoquinoline-1,3(2H,4H)-dione]",melting point,,190 to 191 °C
"CN1CCN(c2ccc(N/C=C3\C(=O)NC(=O)c4ccc(-c5ccc(F)cc5)cc43)cc2)CC1 (as salt: sodium) [Example 263, (4Z)-6-(4-Fluorophenyl)-4-({[4-(4-methylpiperazin-1-yl)phenyl]amino}methylene)-isoquinoline-1,3(2H,4H)-dione]",melting point,,228 to 229 °C
"O=C1NC(=O)c2ccc(-c3ccsc3)cc2/C1=C/Nc1ccc(CN2CCCCC2)cc1 (hydrate or solvate) [Example 104, (4Z)-4-({[4-(Piperidin-1-ylmethyl)phenyl]amino}methylene)-6-thien-3-ylisoquinoline-1,3(2H,4H)-dione]",melting point,,166 to 167 °C
"COc1ccc(-c2ccc3c(c2)/C(=C/Nc2ccc(N4CCN(C)CC4)cc2)C(=O)NC3=O)cc1 (hydrate or solvate) [Example 114, (4Z)-6-(4-methoxyphenyl)-4-({[4-(4-methylpiperazin-1-yl)phenyl]amino}methylene)-isoquinoline-1,3(2H,4H)-dione]",melting point,,224 to 225 °C
"(4Z)-6-Piperidin-1-yl-4-({[4-(methylPiperzin-1-yl)phenyl]amino}methylene)isoquinoline-1,3(2H,4H)-dione [Example 119]",IC50,[1],1.62 µM
same,IC50,[2],> 50 µM
same,IC50,[3],> 50 µM
same,IC50,[4],7.5 µM
same,IC50,[5],3.3 µM
same,IC50,[6],7.3 µM
same,IC50,[7],6.2 µM
"PEG5000thio-acetic acid 5-{[(6-bromo-1,3-dioxo-2,3-dihydro-1H-isoquinolin-4-ylidenemethyl)-amino]-methyl}-2-propoxy-phenyl ester [Example 228]",IC50,[1],~1.5 µM
same,IC50,[2],> 50 µM
same,IC50,[3],> 50 µM
same,IC50,[4],~1.2 µM
same,IC50,[5],~2.1 µM
same,IC50,[6],~2.5 µM
same,IC50,[7],~8.6 µM
"PEG5000thio-acetic acid 5-{[(6-iodo-1,3-dioxo-2,3-dihydro-1H-isoquinolin-4-ylidenemethyl)-amino]-methyl}-2-propoxy-phenyl ester [Example 292]",IC50,[1],~1.5 µM
same,IC50,[2],~33.9 µM
same,IC50,[3],~19.7 µM
same,IC50,[4],~0.9 µM
same,IC50,[5],~1.2 µM
same,IC50,[6],~1.2 µM
same,IC50,[7],~6.5 µM
